Measurements: patent US20040116531A1, “Water-free skin care formulations comprising micronized urea and method of manufacturing the same” (priority 2000, published 2004)

Test system: human healthy skin
Settings: in vivo
Protocol: The study was designed as a single center, randomized, double-blind (investigator-masked) study with intraindividual comparison of treatments to evaluate the cutaneous tolerance of repeated applications of the medical skin care formulations applied under occlusion during 21 days and started with 25 healthy volunteers of either sex between 18 and 65 years old meeting specific inclusion/exclusion criteria.
The volunteers were subjected to an occlusive application of 50 μl of each test formulation on designated test fields on their mid back for 21 consecutive days. The occlusive dressings were removed after 23 hours, and the irritation was evaluated one hour later using a 6-point-score (irritation score):
A Cumulative Irritancy Index (C.I.I.) was calculated for each test preparation for each subject as follows:
C.I.I.=Sum of irritation scores in one individual/number of readings An ‘adjusted C.I.I.’ (C.I.I.*) was calculated by subtracting scores caused by sensitization reactions.
Furthermore, a Mean Cumulative Irritation Index (M.C.I.I.) was calculated for each product by averaging individual C.I.I.s across subjects as follows:
M.C.I.I.=Sum of irritation scores in all individuals/number of readings An ‘adjusted M.C.I.I.’ (M.C.I.I.*) was calculated by subtracting scores caused by sensitization reactions.

In the case of white soft paraffin, the “mean scores during the course of the study” value is reported as “no remarkable differences or tendencies”.
